The record followed here is the Kinase Knowledgebase extract (Sharma et al. 2016).

Bounds are passed on as bounds.

Test [1] has as its target PIK3CD (Human) (UniProt O00329). Briefly: Cell-Based Assay. The note with it: rat-1.
The target in test [2] is PIK3CA (human) (UniProt P42336). Description: Cell-Based Assay. The note with it: rat-1.
Test [3] deals with PIK3CD (Human) (UniProt O00329). Description: Enzyme Assay.
For test [4], the target named is PIK3CG (human) (UniProt P48736). Briefly: Enzyme Assay.
The target in test [5] is PIK3CA (human) (UniProt P42336). Briefly: Enzyme Assay.
Test [6] has as its target PIK3CG (human) (UniProt P48736). Description: Cell-Based Assay. The note with it: u937.

Sequence of PIK3CD (Human) (O00329 whole entry, looked up): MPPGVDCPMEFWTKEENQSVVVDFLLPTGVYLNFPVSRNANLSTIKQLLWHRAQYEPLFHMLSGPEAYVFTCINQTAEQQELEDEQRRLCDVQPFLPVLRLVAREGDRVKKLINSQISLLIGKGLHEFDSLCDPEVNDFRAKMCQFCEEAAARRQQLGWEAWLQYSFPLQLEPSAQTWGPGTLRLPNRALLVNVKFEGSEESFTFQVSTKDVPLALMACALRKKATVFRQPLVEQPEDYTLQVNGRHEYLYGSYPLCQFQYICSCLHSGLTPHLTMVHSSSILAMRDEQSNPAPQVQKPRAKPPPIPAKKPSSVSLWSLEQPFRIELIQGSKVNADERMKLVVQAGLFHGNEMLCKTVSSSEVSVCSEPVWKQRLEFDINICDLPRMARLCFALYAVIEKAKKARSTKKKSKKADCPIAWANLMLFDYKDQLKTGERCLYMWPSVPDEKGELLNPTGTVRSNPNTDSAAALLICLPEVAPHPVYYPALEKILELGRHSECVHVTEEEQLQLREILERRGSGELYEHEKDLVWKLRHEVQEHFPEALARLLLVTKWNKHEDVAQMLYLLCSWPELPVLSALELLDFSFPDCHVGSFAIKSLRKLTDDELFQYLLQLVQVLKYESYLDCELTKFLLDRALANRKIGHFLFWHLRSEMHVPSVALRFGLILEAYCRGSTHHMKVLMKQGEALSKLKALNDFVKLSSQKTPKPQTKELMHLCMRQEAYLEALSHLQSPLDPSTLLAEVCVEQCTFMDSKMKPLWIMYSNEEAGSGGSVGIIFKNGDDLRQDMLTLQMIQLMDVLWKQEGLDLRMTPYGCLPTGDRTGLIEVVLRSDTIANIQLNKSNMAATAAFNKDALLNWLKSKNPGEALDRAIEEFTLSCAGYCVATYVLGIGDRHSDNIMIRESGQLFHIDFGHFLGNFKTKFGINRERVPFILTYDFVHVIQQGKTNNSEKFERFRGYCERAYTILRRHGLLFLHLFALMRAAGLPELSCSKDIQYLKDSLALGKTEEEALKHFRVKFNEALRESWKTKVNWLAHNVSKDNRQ
Sequence of PIK3CG (human) (P48736 whole entry, looked up): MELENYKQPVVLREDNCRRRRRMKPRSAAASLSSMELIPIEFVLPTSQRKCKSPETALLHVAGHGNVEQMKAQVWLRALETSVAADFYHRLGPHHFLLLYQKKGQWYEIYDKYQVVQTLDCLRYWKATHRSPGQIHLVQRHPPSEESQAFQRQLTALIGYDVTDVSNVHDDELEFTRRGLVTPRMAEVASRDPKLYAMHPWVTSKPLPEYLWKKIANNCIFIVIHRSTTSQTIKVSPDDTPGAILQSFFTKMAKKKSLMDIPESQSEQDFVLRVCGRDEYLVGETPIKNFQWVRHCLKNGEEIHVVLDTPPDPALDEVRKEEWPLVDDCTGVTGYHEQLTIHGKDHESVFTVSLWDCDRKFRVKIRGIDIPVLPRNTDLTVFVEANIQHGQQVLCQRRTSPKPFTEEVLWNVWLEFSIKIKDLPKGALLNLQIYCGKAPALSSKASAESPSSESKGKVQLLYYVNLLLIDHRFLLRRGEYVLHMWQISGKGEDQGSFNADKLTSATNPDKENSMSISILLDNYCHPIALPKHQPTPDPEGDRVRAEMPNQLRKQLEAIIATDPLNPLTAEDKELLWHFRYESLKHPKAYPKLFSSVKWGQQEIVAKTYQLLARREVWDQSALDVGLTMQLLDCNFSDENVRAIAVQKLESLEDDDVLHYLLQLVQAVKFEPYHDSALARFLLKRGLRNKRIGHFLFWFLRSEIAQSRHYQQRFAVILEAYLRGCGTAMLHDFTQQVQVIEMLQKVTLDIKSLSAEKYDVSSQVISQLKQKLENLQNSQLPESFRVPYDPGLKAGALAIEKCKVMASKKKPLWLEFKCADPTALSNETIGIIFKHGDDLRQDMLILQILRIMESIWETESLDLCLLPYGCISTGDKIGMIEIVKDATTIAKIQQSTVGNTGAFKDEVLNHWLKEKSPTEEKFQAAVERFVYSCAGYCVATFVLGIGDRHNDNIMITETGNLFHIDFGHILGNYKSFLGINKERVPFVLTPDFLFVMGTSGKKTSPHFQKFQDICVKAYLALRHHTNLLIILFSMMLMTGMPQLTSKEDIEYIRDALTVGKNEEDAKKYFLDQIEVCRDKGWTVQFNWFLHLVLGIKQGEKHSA
Sequence of PIK3CA (human) (P42336 whole entry, looked up): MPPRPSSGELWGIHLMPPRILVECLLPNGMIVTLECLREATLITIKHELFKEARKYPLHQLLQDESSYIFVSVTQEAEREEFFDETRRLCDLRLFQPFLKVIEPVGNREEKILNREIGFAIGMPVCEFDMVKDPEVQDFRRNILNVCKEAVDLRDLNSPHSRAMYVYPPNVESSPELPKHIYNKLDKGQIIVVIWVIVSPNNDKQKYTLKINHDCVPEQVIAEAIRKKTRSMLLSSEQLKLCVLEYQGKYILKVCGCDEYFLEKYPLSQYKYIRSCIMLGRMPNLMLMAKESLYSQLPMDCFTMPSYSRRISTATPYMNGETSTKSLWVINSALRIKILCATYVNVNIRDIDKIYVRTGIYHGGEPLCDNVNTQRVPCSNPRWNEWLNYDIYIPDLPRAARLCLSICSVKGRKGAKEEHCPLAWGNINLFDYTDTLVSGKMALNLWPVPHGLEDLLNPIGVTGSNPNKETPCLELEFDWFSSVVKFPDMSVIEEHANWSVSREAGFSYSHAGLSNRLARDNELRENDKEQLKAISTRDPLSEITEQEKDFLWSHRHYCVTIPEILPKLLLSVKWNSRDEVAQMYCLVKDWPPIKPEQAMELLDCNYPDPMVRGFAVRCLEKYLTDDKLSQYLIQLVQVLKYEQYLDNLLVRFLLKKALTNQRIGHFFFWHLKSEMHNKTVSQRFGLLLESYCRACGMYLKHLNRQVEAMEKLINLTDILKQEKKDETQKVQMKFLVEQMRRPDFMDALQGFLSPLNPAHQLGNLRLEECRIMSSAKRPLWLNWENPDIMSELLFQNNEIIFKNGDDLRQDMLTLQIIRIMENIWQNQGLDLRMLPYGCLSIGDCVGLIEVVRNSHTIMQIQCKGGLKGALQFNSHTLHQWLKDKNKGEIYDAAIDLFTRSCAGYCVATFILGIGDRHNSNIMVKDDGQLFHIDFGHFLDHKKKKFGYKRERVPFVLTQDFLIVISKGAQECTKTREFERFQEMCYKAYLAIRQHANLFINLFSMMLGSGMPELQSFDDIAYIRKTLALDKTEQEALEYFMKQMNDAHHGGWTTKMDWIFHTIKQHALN

Broadly, the IC50 is the concentration that inhibits the measured activity by half. A high value points to a need for much substance. Regarding `Cc1nc(N)nc(N2CCC[C@H]2c2nc3cccc(OC(F)F)c3c(=O)n2-c2ccccc2)c1C#N`, the concentration for half-maximal inhibition (IC50) against PIK3CD (Human) [1] was 77 nM; on PIK3CA (human) [2] it was above 10000 nM; at PIK3CD (Human) [3] it was 9 nM; against PIK3CG (human) [4] it was 70 nM; against PIK3CA (human) [5], 340 nM.

Consider `Nc1nc(N2CCC[C@H]2c2nc3cccc(Cl)c3c(=O)n2C2CCCCC2)c2nc[nH]c2n1`, for which the 50% inhibitory concentration (IC50) against PIK3CD (Human) [1] was 149 nM; at PIK3CA (human) [2] it was above 10000 nM; against PIK3CD (Human) [3] it was 24 nM; at PIK3CG (human) [4] it was 96 nM; against PIK3CA (human) [5], 1780 nM.

As to `CN(C)n1c([C@@H]2CCCN2c2ncnc3[nH]cnc23)nc2cccc(Cl)c2c1=O`, the IC50 against PIK3CD (Human) [1] was determined as 109 nM; at PIK3CA (human) [2], 7680 nM; at PIK3CD (Human) [3], 89 nM; on PIK3CG (human) [4], 320 nM; against PIK3CA (human) [5] it was 2000 nM.

`Nc1nc(N2CCC[C@H]2c2nc3cc(F)cc(F)c3c(=O)n2-c2ccccc2)c2nc[nH]c2n1`: the 50% inhibitory concentration (IC50) is 318 nM against PIK3CD (Human) [1]; above 10000 nM on PIK3CA (human) [2]; 150 nM against PIK3CD (Human) [3]; 4300 nM against PIK3CG (human) [4]; above 10000 nM against PIK3CA (human) [5].

Take `O=c1c2c(Cl)cccc2nc([C@@H]2CCCN2c2ncnn3ccnc23)n1-c1ccccc1`: the IC50 amounted to 56 nM against PIK3CD (Human) [1]; 5150 nM at PIK3CA (human) [2]; 34 nM against PIK3CD (Human) [3]; 103 nM against PIK3CG (human) [4]; 4670 nM against PIK3CA (human) [5].

On to `CN(C)n1c([C@@H]2CCCN2c2nc(N)nc3[nH]cnc23)nc2cccc(Cl)c2c1=O`, for which the half-maximal inhibitory concentration (IC50) against PIK3CD (Human) [1] is 128 nM; against PIK3CA (human) [2], 2860 nM; against PIK3CD (Human) [3], 110 nM; against PIK3CG (human) [4], 780 nM; on PIK3CA (human) [5], 1200 nM.

In the case of `Cc1nc(N)nc(N2C[C@@H](O)C[C@H]2c2nc3cccc(C(F)(F)F)c3c(=O)n2-c2ccccc2)c1C#N`, the concentration for half-maximal inhibition (IC50) on PIK3CD (Human) [1] was 8 nM; on PIK3CG (human) [6], 59 nM; against PIK3CD (Human) [3] it was below 3 nM; at PIK3CG (human) [4] it was 5 nM; against PIK3CA (human) [5] it was 780 nM.

Regarding `O=c1c2c(Cl)cccc2nc([C@@H]2CCCN2c2ncnc3[nH]cnc23)n1C1CCCCC1`, the IC50 at PIK3CD (Human) [1] was 121 nM; at PIK3CA (human) [2], above 10000 nM; on PIK3CD (Human) [3], 12 nM; against PIK3CG (human) [4], 170 nM; at PIK3CA (human) [5] it was above 10000 nM.

On to `Cc1nc(N)nc(N2CCC[C@H]2c2nc3cccc(Cl)c3c(=O)n2-c2ccccc2)c1C#N`, for which the IC50 against PIK3CD (Human) [1] came out at 5 nM; against PIK3CA (human) [2], 1110 nM; at PIK3CD (Human) [3], 7 nM; against PIK3CG (human) [4], 22 nM; on PIK3CA (human) [5], 72 nM.

As to `Nc1nc(N2CCC[C@H]2c2nc3cccc(Cl)c3c(=O)n2N2CCCCC2)c2nc[nH]c2n1`, the concentration for half-maximal inhibition (IC50) on PIK3CD (Human) [1] worked out at 291 nM; on PIK3CA (human) [2] it was 8580 nM; against PIK3CD (Human) [3] it was 12 nM; on PIK3CG (human) [4], 130 nM; against PIK3CA (human) [5], 2300 nM.

For the molecule `CN(C)n1c([C@@H]2CCCN2c2ncnc(N)c2C#N)nc2cccc(Cl)c2c1=O`, the IC50 at PIK3CD (Human) [1] is 26 nM; on PIK3CA (human) [2], 3530 nM; at PIK3CD (Human) [3] it was 21 nM; at PIK3CG (human) [4], 190 nM; against PIK3CA (human) [5] it was 1100 nM.

For the molecule `N#Cc1c(N)ncnc1N1CCC[C@H]1c1nc2cccc(Cl)c2c(=O)n1C1CCCCC1`, the IC50 against PIK3CD (Human) [1] was 13 nM; at PIK3CA (human) [2], above 10000 nM; on PIK3CD (Human) [3] it was 16 nM; on PIK3CG (human) [4], 1100 nM; on PIK3CA (human) [5] it was above 10000 nM.

As for `N#Cc1c(N)ncnc1N1CCC[C@H]1c1nc2cccc(OC(F)F)c2c(=O)n1-c1ccccc1`, the IC50 against PIK3CD (Human) [1] was 166 nM; against PIK3CA (human) [2] it was above 10000 nM; against PIK3CD (Human) [3], 12 nM; at PIK3CG (human) [4], 590 nM; at PIK3CA (human) [5], 2400 nM.

Turning to `CC1(n2c([C@@H]3CCCN3c3ncnc4[nH]cnc34)nc3cccc(Cl)c3c2=O)CC1`, the IC50 worked out at 7 nM at PIK3CD (Human) [1]; 2150 nM against PIK3CA (human) [2]; 7 nM against PIK3CD (Human) [3]; 490 nM against PIK3CG (human) [4]; 580 nM on PIK3CA (human) [5].

With `O=c1c2c(Cl)cccc2nc([C@@H]2CCCN2c2ncnc3[nH]cnc23)n1N1CCCCC1`, the IC50 against PIK3CD (Human) [1] was 198 nM; against PIK3CA (human) [2], above 10000 nM; against PIK3CD (Human) [3], 10 nM; at PIK3CG (human) [4], 200 nM; at PIK3CA (human) [5], 1800 nM.

On to `Cn1cnc2c(N3CCC[C@H]3c3nc4cccc(Cl)c4c(=O)n3N3CCOCC3)nc(N)nc21`, for which the half-maximal inhibitory concentration (IC50) on PIK3CD (Human) [1] is 476 nM; against PIK3CG (human) [6] it was 2360 nM; at PIK3CD (Human) [3], 2500 nM; at PIK3CG (human) [4], 505 nM; against PIK3CA (human) [5], 5250 nM.

On to `COC(=O)N1CC[C@H](n2c([C@@H]3CCCN3c3ncnc4[nH]cnc34)nc3cccc(Cl)c3c2=O)C1`, for which the half-inhibitory concentration (IC50) against PIK3CD (Human) [1] was 1150 nM; against PIK3CA (human) [2], above 10000 nM; against PIK3CD (Human) [3] it was 440 nM; at PIK3CG (human) [4] it was above 10000 nM; against PIK3CA (human) [5], 9300 nM.

Consider `O=c1c2c(F)cc(F)cc2nc([C@@H]2CCCN2c2ncnc3[nH]cnc23)n1-c1ccccc1`, for which the IC50 is 733 nM on PIK3CD (Human) [1]; above 10000 nM against PIK3CA (human) [2]; 120 nM at PIK3CD (Human) [3]; above 10000 nM at PIK3CG (human) [4]; above 10000 nM at PIK3CA (human) [5].
